Source: PubChem BioAssay (NCI)
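Assay format: 96-well plates, 48-hour exposure. TGI is the concentration that stops growth completely.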

What was measured:
Assay in all cases: inhibition of tumour cell growth, NCI panel, 48 h
IGROV1 ovarian = tested on: IGROV1 ovarian
MCF7 breast = tested on: MCF7 breast
SNB-19 CNS = tested on: SNB-19 CNS
MOLT-4 leukemia = tested on: MOLT-4 leukemia
MDA-MB-435 = tested on: MDA-MB-435
NCI-H23 lung = tested on: NCI-H23 lung
SF-268 CNS = tested on: SF-268 CNS
HCC-2998 colon = tested on: HCC-2998 colon
SK-OV-3 ovarian = tested on: SK-OV-3 ovarian
HCT-15 colon = tested on: HCT-15 colon
786-0 renal = tested on: 786-0 renal
A498 renal = tested on: A498 renal
EKVX NSCLC = tested on: EKVX NSCLC
PC-3 prostate = tested on: PC-3 prostate
HL-60(TB) leukemia = tested on: HL-60(TB) leukemia
T-47D breast = tested on: T-47D breast
ACHN renal = tested on: ACHN renal
SK-MEL-5 melanoma = tested on: SK-MEL-5 melanoma
TK-10 renal = tested on: TK-10 renal
CCRF-CEM leukemia = tested on: CCRF-CEM leukemia
HS 578T breast = tested on: HS 578T breast
MALME-3M melanoma = tested on: MALME-3M melanoma
NCI/ADR-RES ovarian = tested on: NCI/ADR-RES ovarian
KM12 colon = tested on: KM12 colon
U251 CNS = tested on: U251 CNS
OVCAR-3 ovarian = tested on: OVCAR-3 ovarian
SN12C renal = tested on: SN12C renal
COLO 205 colon = tested on: COLO 205 colon
OVCAR-8 ovarian = tested on: OVCAR-8 ovarian
DU-145 prostate = tested on: DU-145 prostate
HOP-62 NSCLC = tested on: HOP-62 NSCLC
UO-31 renal = tested on: UO-31 renal
SF-295 CNS = tested on: SF-295 CNS
OVCAR-4 ovarian = tested on: OVCAR-4 ovarian
M14 melanoma = tested on: M14 melanoma
SK-MEL-28 melanoma = tested on: SK-MEL-28 melanoma
BT-549 breast = tested on: BT-549 breast
HT29 colon = tested on: HT29 colon
UACC-257 melanoma = tested on: UACC-257 melanoma
SR leukemia = tested on: SR leukemia
UACC-62 melanoma = tested on: UACC-62 melanoma
NCI-H460 lung = tested on: NCI-H460 lung
SNB-75 CNS = tested on: SNB-75 CNS
RXF 393 renal = tested on: RXF 393 renal
MDA-MB-231 breast = tested on: MDA-MB-231 breast
SK-MEL-2 melanoma = tested on: SK-MEL-2 melanoma
K-562 leukemia = tested on: K-562 leukemia
OVCAR-5 ovarian = tested on: OVCAR-5 ovarian
NCI-H522 lung = tested on: NCI-H522 lung
A549 NSCLC = tested on: A549 NSCLC
NCI-H226 lung = tested on: NCI-H226 lung
SF-539 CNS = tested on: SF-539 CNS
SW-620 colon = tested on: SW-620 colon
CAKI-1 renal = tested on: CAKI-1 renal
HOP-92 NSCLC = tested on: HOP-92 NSCLC
LOX IMVI melanoma = tested on: LOX IMVI melanoma
RPMI-8226 leukemia = tested on: RPMI-8226 leukemia
HCT-116 colon = tested on: HCT-116 colon

Structure (SMILES): CNC(=O)N(C1=NCC(C)S1)c1ccc(C)c(C)c1 (stereo not drawn)
- TGI (IGROV1 ovarian): > 100 µM
- TGI (MCF7 breast): 26.6 µM
- TGI (SNB-19 CNS): > 100 µM
- TGI (MOLT-4 leukemia): > 59.2 µM
- TGI (MDA-MB-435): 3.49 µM
- TGI (NCI-H23 lung): > 100 µM
- TGI (SF-268 CNS): 40.6 µM
- TGI (HCC-2998 colon): 24.1 µM
- TGI (SK-OV-3 ovarian): > 93 µM
- TGI (HCT-15 colon): > 54 µM
- TGI (786-0 renal): > 48.8 µM
- TGI (A498 renal): 17 µM
- TGI (EKVX NSCLC): 70.4 µM
- TGI (PC-3 prostate): > 55 µM
- TGI (HL-60(TB) leukemia): 4.1 µM
- TGI (T-47D breast): > 100 µM
- TGI (ACHN renal): > 76.5 µM
- TGI (SK-MEL-5 melanoma): 19.1 µM
- TGI (TK-10 renal): > 68.2 µM
- TGI (CCRF-CEM leukemia): > 62.8 µM
- TGI (HS 578T breast): > 100 µM
- TGI (MALME-3M melanoma): 55.2 µM
- TGI (NCI/ADR-RES ovarian): > 20.4 µM
- TGI (KM12 colon): > 55.7 µM
- TGI (U251 CNS): > 36.8 µM
- TGI (OVCAR-3 ovarian): 8.4 µM
- TGI (SN12C renal): > 87.2 µM
- TGI (COLO 205 colon): > 44.6 µM
- TGI (OVCAR-8 ovarian): 45.7 µM
- TGI (DU-145 prostate): > 100 µM
- TGI (HOP-62 NSCLC): > 100 µM
- TGI (UO-31 renal): > 78.7 µM
- TGI (SF-295 CNS): > 73.6 µM
- TGI (OVCAR-4 ovarian): > 100 µM
- TGI (M14 melanoma): > 42.3 µM
- TGI (SK-MEL-28 melanoma): > 92.8 µM
- TGI (BT-549 breast): > 100 µM
- TGI (HT29 colon): 12.7 µM
- TGI (UACC-257 melanoma): > 78.1 µM
- TGI (SR leukemia): > 71.7 µM
- TGI (UACC-62 melanoma): > 100 µM
- TGI (NCI-H460 lung): 42.6 µM
- TGI (SNB-75 CNS): > 24.7 µM
- TGI (RXF 393 renal): 8.31 µM
- TGI (MDA-MB-231 breast): > 100 µM
- TGI (SK-MEL-2 melanoma): 15.5 µM
- TGI (K-562 leukemia): > 20.1 µM
- TGI (OVCAR-5 ovarian): > 100 µM
- TGI (NCI-H522 lung): 17.1 µM
- TGI (A549 NSCLC): > 100 µM
- TGI (NCI-H226 lung): > 100 µM
- TGI (SF-539 CNS): > 25.6 µM
- TGI (SW-620 colon): > 100 µM
- TGI (CAKI-1 renal): 20.6 µM
- TGI (HOP-92 NSCLC): > 29.5 µM
- TGI (LOX IMVI melanoma): > 48.5 µM
- TGI (RPMI-8226 leukemia): 15.1 µM
- TGI (HCT-116 colon): > 76.8 µM
